Measured values published in patent publication US12152012B2, “BRAG2 inhibitors and applications thereof” (CENTRE NATIONAL DE LA RECHERCHE SCIENTIFIQUE, priority 2018, dated 2024).
Entries after “also recorded” stand apart in the source; their conditions may differ.

Key:
[1] = target: T1, Rac1/Trio (Homo sapiens, UniProt O75962); test: Nucleotide exchange kinetics on liposomes, Rac1 tethered by hexahistidine tag; assay type: biochemical; conditions: 50 μM; Rac1 tethered to liposomes
T1 construct: human TRIO^DH1PH1 (1232-1550); made in house
Procedure: FIG. 2. Bragsin is a specific inhibitor of the ArfGEF BRAG2 • a. Bragsin1 has no effect on the Sec7 domain of human ArfGEFs in solution. Nucleotide exchange kinetics were measured by fluorescence kinetics in the presence of Bragsin1 (50 μM) or DMSO using purified Sec7 domains and a truncated version of Arf1 (D17Arf1), which can be activated in solution. […] Nucleotide exchange kinetics were determined in the presence of Bragsin1 (50 μM) or DMSO with ArfGEF constructs carrying membrane-binding domains and myristoylated Arf1. […] was artificially tethered to liposomes by a C-terminal hexahistidine tag as described in (Peurois, F. et al. Biochem J 474, 1259-1272 (2017). Representative kinetic profiles are given in FIG. 15. • c. Bragsin1 inhibits the activation of myristoylated Arf6 by BRAG2 on liposomes. Experiments were carried out as in FIG. 2b. Representative kinetic profiles are given in FIG. 16. • d. Dose-response of Bragsin1 and Bragsin2 towards myristoylated Arf1 and BRAG2 on liposomes. Experiments were carried out as in FIG. 2b. • e. Silencing of BRAG2 phenocopies the effect of Bragsin2 on the TGN46 compartment. […]
The effect of Bragsin1 on the GEF efficiency of representative human ArfGEFs was evaluated by fluorescence kinetics using highly purified recombinant Arf GTPases and ArfGEFs. […]

[2] = target: T2, yeast ArfGEF Sec7p (Saccharomyces cerevisiae, UniProt P11075); test: Yeast chemogenomic screen; assay type: cell-based
T2 construct: endogenous in cells; host or cells: yeast
T2 sequence (P11075 whole entry): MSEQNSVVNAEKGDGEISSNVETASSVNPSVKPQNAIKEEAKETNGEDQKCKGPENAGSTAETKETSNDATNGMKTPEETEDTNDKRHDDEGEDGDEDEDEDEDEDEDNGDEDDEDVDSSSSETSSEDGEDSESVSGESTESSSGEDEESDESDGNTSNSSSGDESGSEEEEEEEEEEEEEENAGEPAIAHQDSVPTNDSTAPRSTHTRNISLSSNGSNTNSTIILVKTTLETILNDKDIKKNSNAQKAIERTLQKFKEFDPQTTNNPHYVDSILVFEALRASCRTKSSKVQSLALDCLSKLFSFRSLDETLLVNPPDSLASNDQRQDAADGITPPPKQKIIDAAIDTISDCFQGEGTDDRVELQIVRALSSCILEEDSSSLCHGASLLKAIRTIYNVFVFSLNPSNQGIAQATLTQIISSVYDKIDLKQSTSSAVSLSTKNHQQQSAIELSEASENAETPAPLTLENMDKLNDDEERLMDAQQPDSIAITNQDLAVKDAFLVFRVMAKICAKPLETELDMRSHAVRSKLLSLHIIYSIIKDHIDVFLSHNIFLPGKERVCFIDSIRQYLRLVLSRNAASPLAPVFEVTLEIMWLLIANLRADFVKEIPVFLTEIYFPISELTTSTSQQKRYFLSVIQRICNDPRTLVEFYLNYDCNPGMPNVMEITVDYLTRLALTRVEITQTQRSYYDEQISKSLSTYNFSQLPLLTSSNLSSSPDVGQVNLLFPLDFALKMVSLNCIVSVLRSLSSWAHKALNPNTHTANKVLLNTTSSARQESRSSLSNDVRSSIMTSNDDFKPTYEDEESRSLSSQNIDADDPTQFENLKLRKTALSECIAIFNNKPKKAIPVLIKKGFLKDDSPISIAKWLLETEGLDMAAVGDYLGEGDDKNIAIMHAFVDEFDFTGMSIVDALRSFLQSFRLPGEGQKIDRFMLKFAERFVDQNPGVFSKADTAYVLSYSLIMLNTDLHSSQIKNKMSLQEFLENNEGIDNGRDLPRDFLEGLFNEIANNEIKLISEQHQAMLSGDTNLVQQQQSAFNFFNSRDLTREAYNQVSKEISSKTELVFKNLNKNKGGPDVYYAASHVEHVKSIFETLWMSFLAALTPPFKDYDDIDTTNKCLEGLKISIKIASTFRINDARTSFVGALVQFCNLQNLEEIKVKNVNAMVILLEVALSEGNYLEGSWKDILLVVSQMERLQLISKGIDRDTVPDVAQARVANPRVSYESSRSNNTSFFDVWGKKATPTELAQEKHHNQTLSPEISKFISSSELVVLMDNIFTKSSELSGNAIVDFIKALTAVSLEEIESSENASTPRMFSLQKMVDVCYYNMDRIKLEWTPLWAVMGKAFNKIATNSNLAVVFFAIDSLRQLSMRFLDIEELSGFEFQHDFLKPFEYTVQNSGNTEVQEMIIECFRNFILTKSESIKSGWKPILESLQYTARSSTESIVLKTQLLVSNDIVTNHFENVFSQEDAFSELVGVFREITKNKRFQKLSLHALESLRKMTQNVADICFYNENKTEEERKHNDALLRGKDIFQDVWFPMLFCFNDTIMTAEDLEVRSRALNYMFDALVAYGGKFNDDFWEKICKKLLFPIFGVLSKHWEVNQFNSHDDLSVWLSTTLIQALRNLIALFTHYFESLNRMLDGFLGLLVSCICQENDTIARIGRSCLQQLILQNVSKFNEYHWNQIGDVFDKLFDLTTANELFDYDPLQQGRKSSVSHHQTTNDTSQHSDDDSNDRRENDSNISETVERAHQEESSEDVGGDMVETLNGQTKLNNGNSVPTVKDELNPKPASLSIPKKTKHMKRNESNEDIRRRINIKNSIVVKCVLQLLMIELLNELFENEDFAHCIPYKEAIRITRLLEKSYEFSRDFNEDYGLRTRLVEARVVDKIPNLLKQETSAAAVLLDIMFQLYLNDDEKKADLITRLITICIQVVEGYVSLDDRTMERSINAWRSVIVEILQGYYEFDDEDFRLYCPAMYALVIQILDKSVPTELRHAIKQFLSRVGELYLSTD

[3] = target: T3, BRAG2 binding to PIP2-containing liposomes (Homo sapiens, UniProt Q6DN90); test: Liposome flotation assay
T3 construct: human BRAG2^Sec7 (390-594) and BRAG2^Sec7PH (390-811); made in house
T3 sequence (Q6DN90 512-933): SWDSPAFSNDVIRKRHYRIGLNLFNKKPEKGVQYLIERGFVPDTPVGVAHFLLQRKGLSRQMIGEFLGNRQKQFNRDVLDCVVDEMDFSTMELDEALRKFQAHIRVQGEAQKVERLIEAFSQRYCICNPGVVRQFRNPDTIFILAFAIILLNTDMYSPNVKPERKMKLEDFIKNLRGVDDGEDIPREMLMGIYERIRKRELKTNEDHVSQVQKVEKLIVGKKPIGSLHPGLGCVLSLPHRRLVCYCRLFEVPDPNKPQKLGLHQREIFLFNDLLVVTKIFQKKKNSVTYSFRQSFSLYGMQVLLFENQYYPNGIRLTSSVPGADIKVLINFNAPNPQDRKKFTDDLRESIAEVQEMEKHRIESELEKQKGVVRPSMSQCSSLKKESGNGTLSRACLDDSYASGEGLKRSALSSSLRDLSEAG
Procedure: FIG. 4. Bragsin is a non-competitive inhibitor of protein-membrane interactions • a. Bragsin1 (in violet) overlaps with the canonical phosphoinositide-binding site of the PH domain of BRAG2. IP3 (in red) is from the GRP1-IP3 complex (DiNitto, J. P. et al. Structural basis and mechanism of autoregulation in 3-phosphoinositide-dependent Grp1 family Arf GTPase exchange factors. Mol Cell 28, 569-83 (2007)). The position of the membrane is indicated by an arrow. • b. […] Binding was measured by liposome flotation. U: bottom fraction, containing unbound proteins; B: top fraction, containing liposome-bound proteins. […] Quantification is shown below. • c. Inhibition of BRAG2 by Bragsin2 is stronger in the presence of liposomes that contain PIP2 lipids. Kinetics were measured as in FIG. 2b.
Bragsin may partially overlap with a lipid bound at this position was predicted by comparison of the PH domain of a cytohesin ArfGEF with a phosphoinositide headgroup bound to the canonical lipid-binding site (DiNitto, J. P. et al. Mol Cell 28, 569-83 (2007))(FIG. 4a). Bragsin inhibition could act by blocking the interaction of BRAG2 with membranes. […] Alternatively, Bragsin may bind at the interface between the PH domain and the membrane if inhibition is sensitive to the lipid composition of the membrane. […]

| Effect on Rac1/Trio exchange activity on liposomes [1] | Effect on function of yeast ArfGEF Sec7p [2] | SMILES | Displacement of BRAG2 from PIP2-containing liposomes [3] |
| --- | --- | --- | --- |
| no effect | perturbs the function | Cc1ccc2oc(C(F)(F)F)cc(=O)c2c1[N+](=O)[O-] [Bragsin1, 6-methyl-5-nitro-2-(trifluoromethyl)-4H-chromen-4-one] | – |
| – | – | COc1ccc2oc(C(F)(F)F)cc(=O)c2c1[N+](=O)[O-] [Bragsin2, 6-methoxy-5-nitro-2-(trifluoromethyl)-4H-chromen-4-one] | did not displace; also recorded: does not impair binding |
